Results published in the CheMixHub viscosity set.
± gives the uncertainty stated by the source.

Experiment: xn = mol fraction of the nth substance listed

CC(=O)O.NCCO + CS(C)=O
298.15 K, 101.3 kPa
Settings | viscosity [mPa·s]
x2 = 0.069 | 1634 ± 220
x2 = 0.143 | 1064 ± 120
x2 = 0.223 | 420 ± 31
x2 = 0.311 | 375.1 ± 26
x2 = 0.404 | 139.5 ± 5.7
x2 = 0.502 | 66.42 ± 1.7
x2 = 0.612 | 29.5 ± 0.51
x2 = 0.732 | 12.73 ± 0.16
x2 = 0.852 | 6.71 ± 0.07

CCCCC + CC(C)O
298.15 K, 101 kPa
Settings | viscosity [mPa·s]
x2 = 0.1128 | 0.262 ± 0.01
x2 = 0.2204 | 0.281 ± 0.01
x2 = 0.3273 | 0.323 ± 0.01
x2 = 0.4232 | 0.385 ± 0.01
x2 = 0.516 | 0.466 ± 0.01
x2 = 0.6004 | 0.577 ± 0.01
x2 = 0.6858 | 0.71 ± 0.01
x2 = 0.7699 | 0.966 ± 0.01
x2 = 0.8524 | 1.272 ± 0.01
x2 = 0.9438 | 1.702 ± 0.01

CCN(CC)CCO + O
Settings | viscosity [mPa·s]
293.15 K, 101 kPa, x1 = 0.062 | 4.536 ± 0.025
298.15 K, 101 kPa, x1 = 0.062 | 3.689 ± 0.023
298.15 K, 101.33 kPa, x1 = 0.0039 | 0.991 ± 0.025
298.15 K, 101.33 kPa, x1 = 0.008 | 1.104 ± 0.028
298.15 K, 101.33 kPa, x1 = 0.0121 | 1.233 ± 0.03
298.15 K, 101.33 kPa, x1 = 0.0169 | 1.4 ± 0.034
298.15 K, 101.33 kPa, x1 = 0.0261 | 1.752 ± 0.042
298.15 K, 101.33 kPa, x1 = 0.0372 | 2.242 ± 0.053
298.15 K, 101.33 kPa, x1 = 0.0602 | 3.439 ± 0.079
298.15 K, 101.33 kPa, x1 = 0.0909 | 5.404 ± 0.12
298.15 K, 101.33 kPa, x1 = 0.1326 | 8.287 ± 0.17
298.15 K, 101.33 kPa, x1 = 0.1883 | 11.72 ± 0.22
298.15 K, 101.33 kPa, x1 = 0.3136 | 15.25 ± 0.28
298.15 K, 101.33 kPa, x1 = 0.4547 | 14.14 ± 0.26
298.15 K, 101.33 kPa, x1 = 0.5001 | 13.45 ± 0.23
298.15 K, 101.33 kPa, x1 = 0.6638 | 9.491 ± 0.18
298.15 K, 101.33 kPa, x1 = 0.758 | 6.903 ± 0.14
298.15 K, 101.33 kPa, x1 = 0.8765 | 5.478 ± 0.12
298.15 K, 101.33 kPa, x1 = 0.9544 | 4.484 ± 0.1
303.15 K, 100 kPa, x1 = 0.06181 | 3 ± 0.06
303.15 K, 100 kPa, x1 = 0.09296 | 4.51 ± 0.09
303.15 K, 101 kPa, x1 = 0.02641 | 1.53 ± 0.03
303.15 K, 101 kPa, x1 = 0.062 | 3.048 ± 0.021
303.15 K, 101 kPa, x1 = 0.1117 | 5.23 ± 0.11
303.15 K, 101.33 kPa, x1 = 0.0039 | 0.885 ± 0.023
303.15 K, 101.33 kPa, x1 = 0.008 | 0.98 ± 0.025
303.15 K, 101.33 kPa, x1 = 0.0121 | 1.085 ± 0.027
303.15 K, 101.33 kPa, x1 = 0.0169 | 1.219 ± 0.03
303.15 K, 101.33 kPa, x1 = 0.0261 | 1.495 ± 0.036
303.15 K, 101.33 kPa, x1 = 0.0372 | 1.887 ± 0.045
303.15 K, 101.33 kPa, x1 = 0.0602 | 2.82 ± 0.065
303.15 K, 101.33 kPa, x1 = 0.0909 | 4.364 ± 0.098
303.15 K, 101.33 kPa, x1 = 0.1326 | 6.361 ± 0.13
303.15 K, 101.33 kPa, x1 = 0.1883 | 8.984 ± 0.18
303.15 K, 101.33 kPa, x1 = 0.3789 | 11.36 ± 0.22
303.15 K, 101.33 kPa, x1 = 0.5883 | 8.745 ± 0.17
303.15 K, 101.33 kPa, x1 = 0.6638 | 7.615 ± 0.15
303.15 K, 101.33 kPa, x1 = 0.758 | 5.577 ± 0.12
303.15 K, 101.33 kPa, x1 = 0.8765 | 4.459 ± 0.1
303.15 K, 101.33 kPa, x1 = 0.9544 | 3.65 ± 0.083
308.15 K, 101 kPa, x1 = 0.062 | 2.552 ± 0.02
313.15 K, 100 kPa, x1 = 0.06181 | 2.13 ± 0.04
313.15 K, 100 kPa, x1 = 0.09296 | 3.08 ± 0.06
313.15 K, 101 kPa, x1 = 0.02641 | 1.18 ± 0.03
313.15 K, 101 kPa, x1 = 0.06181 | 2.07 ± 0.04
313.15 K, 101 kPa, x1 = 0.062 | 2.165 ± 0.019
313.15 K, 101 kPa, x1 = 0.1117 | 3.5 ± 0.07
313.15 K, 101.33 kPa, x1 = 0.0039 | 0.723 ± 0.019
313.15 K, 101.33 kPa, x1 = 0.008 | 0.791 ± 0.021
313.15 K, 101.33 kPa, x1 = 0.0121 | 0.866 ± 0.022
313.15 K, 101.33 kPa, x1 = 0.0169 | 0.958 ± 0.024
313.15 K, 101.33 kPa, x1 = 0.0261 | 1.149 ± 0.028
313.15 K, 101.33 kPa, x1 = 0.0372 | 1.412 ± 0.034
313.15 K, 101.33 kPa, x1 = 0.0602 | 2.016 ± 0.048
313.15 K, 101.33 kPa, x1 = 0.0909 | 2.912 ± 0.067
313.15 K, 101.33 kPa, x1 = 0.1326 | 4.179 ± 0.094
313.15 K, 101.33 kPa, x1 = 0.1883 | 5.497 ± 0.12
313.15 K, 101.33 kPa, x1 = 0.2629 | 6.627 ± 0.14
313.15 K, 101.33 kPa, x1 = 0.3136 | 7.004 ± 0.14
313.15 K, 101.33 kPa, x1 = 0.3789 | 7.054 ± 0.14
313.15 K, 101.33 kPa, x1 = 0.4547 | 6.685 ± 0.14
313.15 K, 101.33 kPa, x1 = 0.6638 | 4.668 ± 0.11
313.15 K, 101.33 kPa, x1 = 0.758 | 3.694 ± 0.084
313.15 K, 101.33 kPa, x1 = 0.8765 | 3.059 ± 0.07
313.15 K, 101.33 kPa, x1 = 0.9544 | 2.639 ± 0.061
318.15 K, 101 kPa, x1 = 0.062 | 1.86 ± 0.019
323.15 K, 100 kPa, x1 = 0.06181 | 1.6 ± 0.03
323.15 K, 101 kPa, x1 = 0.02641 | 0.93 ± 0.02
323.15 K, 101 kPa, x1 = 0.06181 | 1.55 ± 0.03
323.15 K, 101 kPa, x1 = 0.062 | 1.617 ± 0.018
323.15 K, 101 kPa, x1 = 0.1117 | 2.51 ± 0.05

CCCCC + CCCCO
298.15 K, 101 kPa
Settings | viscosity [mPa·s]
x2 = 0.1233 | 0.258 ± 0.003
x2 = 0.2435 | 0.319 ± 0.004
x2 = 0.4175 | 0.481 ± 0.005
x2 = 0.4935 | 0.609 ± 0.006
x2 = 0.5883 | 0.809 ± 0.008
x2 = 0.6892 | 1.042 ± 0.01
x2 = 0.7941 | 1.44 ± 0.014
x2 = 0.869 | 1.832 ± 0.017

CCCCC + CCCCCl
298 K, 101.3 kPa
Settings | viscosity [mPa·s]
x1 = 0.1016 | 0.4004 ± 0.011
x1 = 0.2097 | 0.372 ± 0.01
x1 = 0.2358 | 0.3641 ± 0.0098
x1 = 0.403 | 0.3274 ± 0.0088
x1 = 0.5062 | 0.3054 ± 0.0083
x1 = 0.6042 | 0.287 ± 0.0078
x1 = 0.7007 | 0.2701 ± 0.0073
x1 = 0.7975 | 0.2558 ± 0.007
x1 = 0.8963 | 0.2391 ± 0.0065

CCCCCCCO + CC#N
viscosity [mPa·s], 101 kPa
Settings | 298.15 K | 303.15 K | 308.15 K
x2 = 0.0959 | 3.772 ± 0.32 | 3.561 ± 0.31 | 2.881 ± 0.25
x2 = 0.2368 | 2.953 ± 0.26 | 2.592 ± 0.23 | 2.277 ± 0.2
x2 = 0.3327 | 2.267 ± 0.2 | 2.022 ± 0.18 | 1.808 ± 0.16
x2 = 0.4126 | 1.836 ± 0.17 | 1.634 ± 0.15 | 1.457 ± 0.13
x2 = 0.5459 | 1.278 ± 0.12 | 1.149 ± 0.11 | 1.047 ± 0.099
x2 = 0.6546 | 0.943 ± 0.091 | 0.857 ± 0.084 | 0.786 ± 0.078
x2 = 0.741 | 0.716 ± 0.072 | 0.658 ± 0.067 | 0.611 ± 0.063
x2 = 0.8119 | 0.58 ± 0.061 | 0.547 ± 0.058 | 0.51 ± 0.055
x2 = 0.8706 | 0.487 ± 0.053 | 0.463 ± 0.051 | 0.433 ± 0.048
x2 = 0.9199 | 0.423 ± 0.047 | 0.402 ± 0.046 | 0.382 ± 0.044
x2 = 0.9633 | 0.384 ± 0.044 | 0.366 ± 0.043 | 0.35 ± 0.041

OC1CCCCC1 + CN1CCCC1=O
Settings | viscosity [mPa·s]
303.15 K, 101 kPa, x2 = 0.6223 | 16.55 ± 3.3

CCCCCCCO + CCCCCC
viscosity [mPa·s], 101.33 kPa
Settings | 303.15 K | 313.15 K
x1 = 0.0308 | 0.2866 ± 0.0041 | 0.2693 ± 0.004
x1 = 0.0919 | 0.3254 ± 0.0043 | 0.294 ± 0.0041
x1 = 0.1567 | 0.3966 ± 0.0047 | 0.3446 ± 0.0044
x1 = 0.2496 | 0.5095 ± 0.0054 | 0.4493 ± 0.005
x1 = 0.4018 | 0.7642 ± 0.0071 | 0.6611 ± 0.0064
x1 = 0.4831 | 0.9566 ± 0.0089 | 0.7663 ± 0.0074
x1 = 0.578 | 1.248 ± 0.012 | 0.9882 ± 0.0093
x1 = 0.6838 | 1.776 ± 0.017 | 1.348 ± 0.013
x1 = 0.7882 | 2.479 ± 0.024 | 1.832 ± 0.018
x1 = 0.8946 | 3.522 ± 0.034 | 2.473 ± 0.026
x1 = 0.9642 | 4.384 ± 0.041 | 3.175 ± 0.034
